{"source": "paper PMC7127853", "about": "(Bioorganic & Medicinal Chemistry, 2011)", "key": {"[1]": {"tested_on": "Reovirus-1", "test": "Antiviral assay, Reovirus-1 in Vero cells", "type": "cell-based", "conditions": "read-out: Antiviral activity: EC50 Reovirus-1 (Vero)"}, "[2]": {"tested_on": "human cytomegalovirus (HCMV) strain AD-169", "test": "Antiviral assay, HCMV AD-169 in HEL cells", "type": "cell-based", "conditions": "compared with TDP/HDP (S)-HPMPC of ref [11]"}, "[3]": {"tested_on": "Madin Darby canine kidney cells (MDCK)", "test": "Cytotoxicity, cell morphology", "type": "cell-based"}, "[4]": {"tested_on": "human embryonic lung (HEL) fibroblasts", "test": "Cytotoxicity, cell morphology", "type": "cell-based", "conditions": "HEL cells; minimum cytotoxic concentration altering cell morphology"}, "[5]": {"tested_on": "African green monkey cells (Vero)", "test": "Cytotoxicity, cell morphology", "type": "cell-based"}, "[6]": {"tested_on": "HIV-1 (IIIB)", "test": "Anti-HIV-1 assay in CEM cells", "type": "cell-based, human immunodeficiency virus type 1", "conditions": "compared with HDP–PMEA of ref [12]"}}}
{"smiles": "Nc1ncnc2c1ncn2CCOCP(=O)(OCCCCCCCCCCO)OCCCCCCCCCCO", "note": "[Compound 5, Bis(10-Hydroxydecyl) ester of 9-[2-(phosphonomethoxy)ethyl]adenine]", "values": [{"measurement": "EC50", "setting": "[1]", "value": "> 34", "unit": "µM"}]}
{"smiles": "Nc1ccn(C[C@@H](CO)OCP(=O)(O)OCCOCCOCCOCCOCCOCCO)c(=O)n1", "note": "[Compound 16, 14-Hydroxy-3,6,9,12-tetraoxaheptadecyl ester of (S)-1-[3-hydroxy-2-(phophonomethoxy)propyl]cytosine]", "values": [{"measurement": "Drop of activity against CMV versus analogous simple alkoxyalkyl ester", "setting": "[2]", "value": "400- to 1000 fold"}]}
{"smiles": "NC(=O)c1ncn([C@@H]2O[C@H](CO)[C@@H](O)[C@H]2O)n1", "note": "[Ribavirin, reference compound]", "values": [{"measurement": "EC50", "setting": "[1]", "value": "≥ 174", "unit": "µM"}, {"measurement": "Cytotoxicity Cell morphology (MCC) MDCK", "setting": "[3]", "value": ">100", "unit": "μM"}]}
{"smiles": "O=c1[nH]c(=O)n([C@H]2C[C@H](O)[C@@H](CO)O2)cc1/C=C/Br", "note": "[Brivudin]", "values": [{"measurement": "Cytotoxicity Cell morphology (MCC) (HEL)", "setting": "[4]", "value": ">150", "unit": "μM"}]}
{"smiles": "Nc1nc2c(ncn2COCCO)c(=O)[nH]1", "note": "[Acyclovir]", "values": [{"measurement": "Cytotoxicity Cell morphology (MCC) (HEL)", "setting": "[4]", "value": ">222", "unit": "μM"}]}
{"smiles": "Nc1ccn(C[C@@H](CO)OCP(=O)(O)O)c(=O)n1.O.O", "note": "[(S)-HPMPC, Cidofovir]", "values": [{"measurement": "Cytotoxicity Cell morphology (MCC) (HEL)", "setting": "[4]", "value": ">317", "unit": "μM"}]}
{"smiles": "Nc1ncnc2c1ncn2CCOCP(=O)(OCCOCCCCCCCCCCO)OCCOCCCCCCCCCCO", "note": "[Compound 9, Bis{2-[(10-Hydroxydecyl)oxy]ethyl} ester of 9-[2-(phosphonomethoxy)ethyl]adenine]", "values": [{"measurement": "Cytotoxicity Cell morphology (MCC) (HEL)", "setting": "[4]", "value": 148, "unit": "μM"}, {"measurement": "EC50", "setting": "[1]", "value": "> 29.7", "unit": "µM"}, {"measurement": "Cytotoxicity Cell morphology (MCC) Vero", "setting": "[5]", "value": 148, "unit": "μM"}, {"measurement": "Cytotoxicity Cell morphology (MCC) MDCK", "setting": "[3]", "value": 29.7, "unit": "μM"}]}
{"smiles": "CCOC(=O)C1=C[C@@H](OC(CC)CC)[C@H](NC(C)=O)[C@@H](N)C1", "note": "[Oseltamivir]", "values": [{"measurement": "Cytotoxicity Cell morphology (MCC) MDCK", "setting": "[3]", "value": ">100", "unit": "μM"}]}
{"smiles": "Nc1nc(O)c2ncn(COC(CO)CO)c2n1", "note": "[Ganciclovir]", "values": [{"measurement": "Cytotoxicity Cell morphology (MCC) (HEL)", "setting": "[4]", "value": ">392", "unit": "μM"}]}
{"smiles": "CCOCCOCCOCCOCCOCCOCCOP(=O)(O)COCCn1cnc2c(N)ncnc21", "note": "[Compound 12, 3,6,9,12,15,18-Hexaoxaeicosyl ester of 9-[2-(phosphonomethoxy)ethyl]adenine]", "values": [{"measurement": "Loss of anti-HIV activity compared to HDP–PMEA", "setting": "[6]", "value": "> 10^7 fold"}]}
